Reference: the Kinase Knowledgebase extract (Sharma et al. 2016)

Tests used:
Assay in all cases: Enzyme Assay
[1] = target: PIK3CA (human) (UniProt P42336)
[2] = target: PIK3CB (Human) (UniProt P42338)
[3] = target: PIK3CD (Human) (UniProt O00329)
[4] = target: PIK3CG (human) (UniProt P48736)
PIK3CG (human), sequence (P48736 whole entry, looked up): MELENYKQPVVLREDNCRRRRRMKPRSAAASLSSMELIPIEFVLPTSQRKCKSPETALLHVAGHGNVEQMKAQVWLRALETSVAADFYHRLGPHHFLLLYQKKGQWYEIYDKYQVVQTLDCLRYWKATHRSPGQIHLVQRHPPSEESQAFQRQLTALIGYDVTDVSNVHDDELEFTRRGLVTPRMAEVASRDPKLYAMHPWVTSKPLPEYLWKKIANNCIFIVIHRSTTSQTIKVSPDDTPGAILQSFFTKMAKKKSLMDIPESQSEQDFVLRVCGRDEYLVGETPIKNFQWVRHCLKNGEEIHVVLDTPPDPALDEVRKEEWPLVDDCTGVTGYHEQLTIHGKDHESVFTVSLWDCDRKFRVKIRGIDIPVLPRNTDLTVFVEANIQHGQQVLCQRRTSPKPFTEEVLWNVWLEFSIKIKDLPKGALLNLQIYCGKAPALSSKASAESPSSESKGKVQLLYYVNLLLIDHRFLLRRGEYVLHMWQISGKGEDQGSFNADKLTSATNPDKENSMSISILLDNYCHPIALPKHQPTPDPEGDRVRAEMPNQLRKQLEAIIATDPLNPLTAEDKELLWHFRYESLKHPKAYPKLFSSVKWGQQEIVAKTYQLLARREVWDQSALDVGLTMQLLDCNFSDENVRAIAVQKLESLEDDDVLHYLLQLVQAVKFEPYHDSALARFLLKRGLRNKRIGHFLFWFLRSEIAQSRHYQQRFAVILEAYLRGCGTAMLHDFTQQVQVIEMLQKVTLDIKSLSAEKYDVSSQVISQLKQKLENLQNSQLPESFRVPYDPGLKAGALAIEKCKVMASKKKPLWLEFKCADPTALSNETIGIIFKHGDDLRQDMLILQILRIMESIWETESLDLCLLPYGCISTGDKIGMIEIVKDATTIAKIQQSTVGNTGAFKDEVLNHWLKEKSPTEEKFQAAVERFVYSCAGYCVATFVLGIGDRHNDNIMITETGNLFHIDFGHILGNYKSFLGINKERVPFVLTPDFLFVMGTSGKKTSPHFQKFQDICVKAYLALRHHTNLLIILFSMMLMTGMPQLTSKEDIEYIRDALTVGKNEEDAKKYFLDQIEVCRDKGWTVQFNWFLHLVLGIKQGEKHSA

PIK3CD (Human), sequence (O00329 whole entry, looked up): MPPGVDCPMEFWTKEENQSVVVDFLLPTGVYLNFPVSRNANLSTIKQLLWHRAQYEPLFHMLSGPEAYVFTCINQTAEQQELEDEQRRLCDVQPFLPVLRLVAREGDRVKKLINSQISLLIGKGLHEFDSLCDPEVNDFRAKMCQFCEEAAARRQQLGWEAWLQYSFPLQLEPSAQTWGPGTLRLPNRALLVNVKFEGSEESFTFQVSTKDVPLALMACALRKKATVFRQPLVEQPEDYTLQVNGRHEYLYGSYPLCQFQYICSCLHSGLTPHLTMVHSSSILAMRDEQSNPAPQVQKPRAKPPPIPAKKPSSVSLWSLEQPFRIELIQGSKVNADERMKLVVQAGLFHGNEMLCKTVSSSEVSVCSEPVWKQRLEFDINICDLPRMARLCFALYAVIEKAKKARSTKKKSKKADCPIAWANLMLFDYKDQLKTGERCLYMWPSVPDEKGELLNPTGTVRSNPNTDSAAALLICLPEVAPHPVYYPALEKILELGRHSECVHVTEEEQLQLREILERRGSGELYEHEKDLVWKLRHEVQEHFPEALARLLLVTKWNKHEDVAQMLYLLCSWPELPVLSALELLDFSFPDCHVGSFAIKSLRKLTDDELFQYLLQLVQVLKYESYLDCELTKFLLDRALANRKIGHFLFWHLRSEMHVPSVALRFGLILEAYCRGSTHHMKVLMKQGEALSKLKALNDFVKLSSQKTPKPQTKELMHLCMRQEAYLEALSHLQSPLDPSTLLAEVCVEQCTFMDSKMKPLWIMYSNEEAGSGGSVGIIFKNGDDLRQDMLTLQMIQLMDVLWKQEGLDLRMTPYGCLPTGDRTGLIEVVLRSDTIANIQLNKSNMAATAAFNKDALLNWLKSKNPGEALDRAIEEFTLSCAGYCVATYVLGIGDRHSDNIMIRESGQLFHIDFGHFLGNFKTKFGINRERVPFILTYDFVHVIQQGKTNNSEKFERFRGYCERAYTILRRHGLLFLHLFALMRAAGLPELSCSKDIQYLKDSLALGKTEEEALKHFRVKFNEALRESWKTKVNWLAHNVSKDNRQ
PIK3CB (Human), sequence (P42338 whole entry, looked up): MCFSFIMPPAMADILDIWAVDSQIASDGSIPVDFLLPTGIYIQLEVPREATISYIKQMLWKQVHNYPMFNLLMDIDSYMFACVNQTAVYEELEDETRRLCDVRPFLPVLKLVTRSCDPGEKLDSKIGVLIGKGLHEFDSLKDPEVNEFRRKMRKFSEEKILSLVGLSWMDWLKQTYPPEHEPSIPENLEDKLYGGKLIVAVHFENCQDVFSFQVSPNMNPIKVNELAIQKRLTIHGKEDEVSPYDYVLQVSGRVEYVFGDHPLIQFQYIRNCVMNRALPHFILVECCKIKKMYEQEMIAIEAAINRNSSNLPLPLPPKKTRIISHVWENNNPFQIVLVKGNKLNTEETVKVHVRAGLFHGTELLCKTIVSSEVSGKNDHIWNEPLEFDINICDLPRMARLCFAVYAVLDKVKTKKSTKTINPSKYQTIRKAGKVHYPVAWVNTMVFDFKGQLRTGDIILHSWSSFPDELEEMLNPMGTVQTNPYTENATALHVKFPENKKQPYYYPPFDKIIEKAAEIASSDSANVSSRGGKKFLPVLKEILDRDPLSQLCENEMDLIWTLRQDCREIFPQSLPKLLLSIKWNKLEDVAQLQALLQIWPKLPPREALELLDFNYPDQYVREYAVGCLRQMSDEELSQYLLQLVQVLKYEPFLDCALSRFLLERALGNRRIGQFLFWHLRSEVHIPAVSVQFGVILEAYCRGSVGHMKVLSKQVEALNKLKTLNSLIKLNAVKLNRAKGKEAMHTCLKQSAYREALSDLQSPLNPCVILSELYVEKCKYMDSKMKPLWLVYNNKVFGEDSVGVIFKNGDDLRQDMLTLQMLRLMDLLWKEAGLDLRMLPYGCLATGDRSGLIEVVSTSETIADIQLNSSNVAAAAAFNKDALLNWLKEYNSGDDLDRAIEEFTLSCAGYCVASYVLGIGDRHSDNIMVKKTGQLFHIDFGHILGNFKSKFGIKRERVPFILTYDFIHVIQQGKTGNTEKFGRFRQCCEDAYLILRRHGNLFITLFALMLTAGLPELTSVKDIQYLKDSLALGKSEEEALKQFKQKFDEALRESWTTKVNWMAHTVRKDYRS
PIK3CA (human), sequence (P42336 whole entry, looked up): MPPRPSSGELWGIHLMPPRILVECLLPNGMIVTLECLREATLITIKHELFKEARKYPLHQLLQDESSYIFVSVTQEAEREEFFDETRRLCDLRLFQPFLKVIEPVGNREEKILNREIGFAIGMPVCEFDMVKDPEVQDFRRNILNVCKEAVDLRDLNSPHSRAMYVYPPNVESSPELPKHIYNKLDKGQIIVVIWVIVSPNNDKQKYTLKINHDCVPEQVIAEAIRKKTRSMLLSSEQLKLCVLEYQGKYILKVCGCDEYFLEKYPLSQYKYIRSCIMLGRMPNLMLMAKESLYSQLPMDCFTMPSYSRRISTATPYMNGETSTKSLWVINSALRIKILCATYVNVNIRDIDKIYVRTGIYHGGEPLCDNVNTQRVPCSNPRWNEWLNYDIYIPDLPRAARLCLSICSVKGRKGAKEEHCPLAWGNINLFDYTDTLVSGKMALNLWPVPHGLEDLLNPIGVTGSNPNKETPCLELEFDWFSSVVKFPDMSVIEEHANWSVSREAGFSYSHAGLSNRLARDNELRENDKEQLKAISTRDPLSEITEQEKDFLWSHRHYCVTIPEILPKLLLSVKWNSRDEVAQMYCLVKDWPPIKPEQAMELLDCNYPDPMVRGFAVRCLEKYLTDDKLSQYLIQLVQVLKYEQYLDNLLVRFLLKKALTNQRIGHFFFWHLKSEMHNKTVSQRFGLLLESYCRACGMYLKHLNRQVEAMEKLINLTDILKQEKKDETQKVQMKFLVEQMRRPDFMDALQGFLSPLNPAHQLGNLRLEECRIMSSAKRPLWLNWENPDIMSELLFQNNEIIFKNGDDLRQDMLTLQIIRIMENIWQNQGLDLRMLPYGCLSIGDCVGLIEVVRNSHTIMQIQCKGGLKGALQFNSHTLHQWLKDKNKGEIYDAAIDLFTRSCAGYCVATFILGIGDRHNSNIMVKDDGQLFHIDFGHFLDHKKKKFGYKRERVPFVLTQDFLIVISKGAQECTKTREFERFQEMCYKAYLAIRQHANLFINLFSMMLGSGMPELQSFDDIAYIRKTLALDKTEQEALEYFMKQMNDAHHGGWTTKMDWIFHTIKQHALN

Molecule Cc1cccc2cc([C@H](C)Nc3ncnc4ccccc34)n(-c3ccccc3)c(=O)c12 has an IC50 [1] of over 10 µM, an IC50 [2] of over 10 µM and an IC50 [3] of under 0.1 µM. It also gave an IC50 [4] of 0.1 to 1 µM.
Cc1cccc2cc([C@H](C)Nc3ncnc4[nH]nc(Cl)c34)n(C3CC3)c(=O)c12 showed an IC50 [1] of over 10 µM, an IC50 [2] of 0.1 to 1 µM and an IC50 [3] of under 0.1 µM. The IC50 [4] was 0.1 to 1 µM.
Work on Cc1cccc2cc([C@H](C)Nc3nc(Cl)nc4[nH]cnc34)n(C3CC3)c(=O)c12 yielded an IC50 [1] of over 10 µM, an IC50 [2] of under 0.1 µM and an IC50 [3] of under 0.1 µM. It also gave an IC50 [4] of 0.1 to 1 µM.
